Measured values published in ChEMBL document CHEMBL1944604, “Aminopurine based JNK inhibitors for the prevention of ischemia reperfusion injury” (Bioorg Med Chem Lett, 2012).
Converted amounts (≈) assume the structure as drawn.

Tests used:
[1] = Metabolic stability of the compound in rat liver microsomes assessed as compound remaining at 3 uM after 30 mins; format: ADME, Microsome; settings: read-out: Stability
[2] = Metabolic stability of the compound in dog liver microsomes assessed as compound remaining at 3 uM after 30 mins; format: ADME, Canis lupus familiaris, Microsome; settings: read-out: Stability
[3] = Metabolic stability of the compound in monkey liver microsomes assessed as compound remaining at 3 uM after 30 mins; format: ADME, Macaca mulatta, Microsome; settings: rhesus monkey, read-out: Stability
[4] = Metabolic stability of the compound in human liver microsomes assessed as compound remaining at 3 uM after 30 mins; format: ADME, Microsome; settings: read-out: Stability
[5] = Thermodynamic solubility of the compound at pH 5; format: physicochemical; settings: buffer, read-out: Therm_solubility
[6] = biological target: T1, Cytochrome P450 3A4 (Homo sapiens, UniProt P08684); assay: Inhibition of recombinant CYP3A4 up to 30 uM; format: ADME; settings: recombinant enzyme
T1 sequence (P08684 whole entry): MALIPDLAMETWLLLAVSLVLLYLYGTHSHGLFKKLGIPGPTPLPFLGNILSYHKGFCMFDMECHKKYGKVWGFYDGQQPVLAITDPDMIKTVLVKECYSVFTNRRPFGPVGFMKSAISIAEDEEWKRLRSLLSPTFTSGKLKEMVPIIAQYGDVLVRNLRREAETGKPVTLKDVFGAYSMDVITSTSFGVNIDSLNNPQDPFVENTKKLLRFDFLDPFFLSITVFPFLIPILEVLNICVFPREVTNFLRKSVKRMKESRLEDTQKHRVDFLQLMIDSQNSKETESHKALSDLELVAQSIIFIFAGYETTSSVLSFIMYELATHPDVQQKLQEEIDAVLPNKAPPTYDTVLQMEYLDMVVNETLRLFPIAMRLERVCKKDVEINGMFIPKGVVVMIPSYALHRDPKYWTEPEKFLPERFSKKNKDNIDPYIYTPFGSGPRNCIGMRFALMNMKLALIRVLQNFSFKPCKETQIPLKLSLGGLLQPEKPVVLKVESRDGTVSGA

[7] = biological target: c-Jun N-terminal kinase, JNK (Homo sapiens, UniProt P45983+P53779+P45984); assay: Inhibition of JNK-mediated cJun phosphorylation in human Jurkat T cells by Western blotting; format: cell-based
[8] = biological target: Mitogen-activated protein kinase 10 (Homo sapiens, UniProt P53779); assay: Inhibition of full length Hexa-His-tagged JNK3 using GST-tagged cJun and [gamma33P]ATP as substrate after 60 mins by scintillation counting
Mitogen-activated protein kinase 10, sequence (P53779 whole entry): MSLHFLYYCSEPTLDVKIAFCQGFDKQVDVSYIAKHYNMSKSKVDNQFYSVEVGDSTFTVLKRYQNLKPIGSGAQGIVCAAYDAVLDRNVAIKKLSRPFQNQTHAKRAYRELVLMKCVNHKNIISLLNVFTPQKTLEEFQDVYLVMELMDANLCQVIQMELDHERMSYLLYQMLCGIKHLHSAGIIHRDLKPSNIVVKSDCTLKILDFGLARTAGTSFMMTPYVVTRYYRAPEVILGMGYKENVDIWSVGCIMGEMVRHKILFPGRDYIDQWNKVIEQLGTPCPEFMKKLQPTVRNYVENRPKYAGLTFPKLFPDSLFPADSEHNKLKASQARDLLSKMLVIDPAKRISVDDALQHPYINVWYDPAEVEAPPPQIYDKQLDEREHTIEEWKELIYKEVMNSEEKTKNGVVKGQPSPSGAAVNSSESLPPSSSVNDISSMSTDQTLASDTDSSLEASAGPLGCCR

[9] = biological target: Mitogen-activated protein kinase 14 (Homo sapiens, UniProt Q16539); assay: Inhibition of p38alpha using MBP and [gamma33P]ATP as substrate after 60 mins by scintillation counting
Mitogen-activated protein kinase 14, sequence (Q16539 whole entry): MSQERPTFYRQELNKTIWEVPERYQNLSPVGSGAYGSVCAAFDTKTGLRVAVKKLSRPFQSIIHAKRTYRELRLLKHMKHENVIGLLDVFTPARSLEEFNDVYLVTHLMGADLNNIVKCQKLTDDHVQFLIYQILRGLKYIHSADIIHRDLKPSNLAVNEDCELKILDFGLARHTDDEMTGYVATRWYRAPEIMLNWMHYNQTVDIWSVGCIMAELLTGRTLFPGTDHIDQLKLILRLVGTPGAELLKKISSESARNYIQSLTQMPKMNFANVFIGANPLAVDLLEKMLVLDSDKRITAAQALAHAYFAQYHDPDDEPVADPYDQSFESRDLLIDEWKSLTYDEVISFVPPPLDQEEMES

[10] = Volume of distribution at steady state in rat at 2 to 10 mg/kg, iv; format: ADME, organism-based; parameters: dose 2-10 mg/kg, route intravenous; settings: in vivo, read-out: Vdss
[11] = test system: Rattus norvegicus; assay: Antiinflammatory activity in po dosed CD rat whole blood assessed as inhibition of LPS-induced TNFalpha production administered 1 hr before LPS challenge measured by […]; format: functional, organism-based
[12] = test system: Mus musculus; assay: Hepatoprotective activity in BALB/c mouse assessed as inhibition of concanavalin A-induced ALT elevation at 30 mg/kg, ip administered 1 hr prior Con A challenge; format: functional; settings: route intraperitoneal
[13] = test system: Mus musculus; assay: Hepatoprotective activity in BALB/c mouse assessed as inhibition of concanavalin A-induced ALT elevation at 60 mg/kg, ip administered 1 hr prior Con A challenge; format: functional; settings: route intraperitoneal
[14] = Half life in rat at 2 to 10 mg/kg, iv bolus; format: ADME, organism-based; parameters: dose 2-10 mg/kg, route intravenous; settings: in vivo
[15] = Clearance in rat at 10 mg/kg, iv infusion; format: ADME, organism-based; parameters: dose 10 mg/kg, route intravenous; settings: in vivo
[16] = Volume of distribution at steady state in rat at 10 mg/kg, iv infusion; format: ADME, organism-based; parameters: dose 10 mg/kg, route intravenous; settings: in vivo, read-out: Vdss
[17] = Half life in rat at 10 mg/kg, iv infusion; format: ADME, organism-based; parameters: dose 10 mg/kg, route intravenous; settings: in vivo
[18] = Clearance in dog at 1 mg/kg, iv bolus; format: ADME, organism-based, Canis lupus familiaris; parameters: dose 1 mg/kg, route intravenous; settings: in vivo
[19] = AUC in dog at 1 mg/kg, iv bolus; format: ADME, organism-based, Canis lupus familiaris; parameters: dose 1 mg/kg, route intravenous; settings: plasma
[20] = Half life in dog at 1 mg/kg, iv bolus; format: ADME, organism-based, Canis lupus familiaris; parameters: dose 1 mg/kg, route intravenous; settings: in vivo
[21] = Clearance in cynomolgus monkey at 1 mg/kg, iv bolus; format: ADME, organism-based, Macaca fascicularis; parameters: dose 1 mg/kg, route intravenous; settings: in vivo
[22] = Half life in cynomolgus monkey at 1 mg/kg, iv bolus; format: ADME, organism-based, Macaca fascicularis; parameters: dose 1 mg/kg, route intravenous; settings: in vivo
[23] = Mean residence time in cynomolgus monkey at 1 mg/kg, iv bolus; format: ADME, organism-based, Macaca fascicularis; parameters: dose 1 mg/kg, route intravenous; settings: in vivo
[24] = biological target: T2, Cytochrome P450 1A2 (Homo sapiens, UniProt P05177); assay: Inhibition of recombinant CYP1A2 up to 30 uM; format: ADME; settings: recombinant enzyme
T2 sequence (P05177 whole entry): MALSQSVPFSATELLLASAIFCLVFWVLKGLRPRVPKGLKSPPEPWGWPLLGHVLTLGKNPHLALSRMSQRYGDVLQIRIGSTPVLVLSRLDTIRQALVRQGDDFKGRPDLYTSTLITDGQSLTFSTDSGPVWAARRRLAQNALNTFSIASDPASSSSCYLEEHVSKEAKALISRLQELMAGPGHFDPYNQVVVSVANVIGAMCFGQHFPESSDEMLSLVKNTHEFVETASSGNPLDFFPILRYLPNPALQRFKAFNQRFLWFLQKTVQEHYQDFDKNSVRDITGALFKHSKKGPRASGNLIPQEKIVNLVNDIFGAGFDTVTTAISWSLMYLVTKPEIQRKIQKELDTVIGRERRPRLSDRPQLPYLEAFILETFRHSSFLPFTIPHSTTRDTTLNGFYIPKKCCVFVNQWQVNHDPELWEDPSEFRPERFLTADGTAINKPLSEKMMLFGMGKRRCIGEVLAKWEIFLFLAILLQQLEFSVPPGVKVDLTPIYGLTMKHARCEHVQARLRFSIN

[25] = biological target: Cytochrome P450 2C9 (Homo sapiens, UniProt P11712); assay: Inhibition of recombinant CYP2C9 up to 30 uM; format: ADME; settings: recombinant enzyme
Cytochrome P450 2C9, sequence (P11712 whole entry): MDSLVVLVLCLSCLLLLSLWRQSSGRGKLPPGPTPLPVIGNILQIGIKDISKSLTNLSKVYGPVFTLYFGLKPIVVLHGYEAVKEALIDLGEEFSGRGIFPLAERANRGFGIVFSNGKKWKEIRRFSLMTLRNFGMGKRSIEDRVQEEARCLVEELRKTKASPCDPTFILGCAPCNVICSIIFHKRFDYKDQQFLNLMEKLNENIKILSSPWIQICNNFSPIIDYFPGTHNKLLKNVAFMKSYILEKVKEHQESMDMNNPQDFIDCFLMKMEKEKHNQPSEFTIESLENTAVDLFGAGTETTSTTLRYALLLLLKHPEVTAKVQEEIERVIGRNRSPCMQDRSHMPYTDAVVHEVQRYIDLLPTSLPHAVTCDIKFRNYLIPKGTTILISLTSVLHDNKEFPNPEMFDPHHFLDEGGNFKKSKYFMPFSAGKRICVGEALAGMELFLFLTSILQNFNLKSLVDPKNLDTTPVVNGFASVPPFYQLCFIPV

[26] = biological target: Cytochrome P450 2C19 (Homo sapiens, UniProt P33261); assay: Inhibition of recombinant CYP2C19 up to 30 uM; format: ADME; settings: recombinant enzyme
Cytochrome P450 2C19, sequence (P33261 whole entry): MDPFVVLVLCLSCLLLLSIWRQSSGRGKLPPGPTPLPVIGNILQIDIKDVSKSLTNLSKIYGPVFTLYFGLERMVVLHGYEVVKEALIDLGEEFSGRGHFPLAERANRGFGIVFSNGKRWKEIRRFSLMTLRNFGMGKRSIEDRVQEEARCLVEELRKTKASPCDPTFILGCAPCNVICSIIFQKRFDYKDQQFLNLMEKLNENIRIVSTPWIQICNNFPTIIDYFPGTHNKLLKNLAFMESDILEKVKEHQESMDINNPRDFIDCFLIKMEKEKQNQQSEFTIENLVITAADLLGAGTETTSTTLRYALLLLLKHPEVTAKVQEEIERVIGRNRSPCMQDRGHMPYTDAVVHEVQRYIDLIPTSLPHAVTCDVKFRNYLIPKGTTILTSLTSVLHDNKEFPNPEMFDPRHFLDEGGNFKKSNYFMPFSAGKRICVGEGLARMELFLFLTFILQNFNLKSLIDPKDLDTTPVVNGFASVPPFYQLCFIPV

[27] = biological target: Cytochrome P450 2D6 (Homo sapiens, UniProt P10635); assay: Inhibition of recombinant CYP2D6 up to 30 uM; format: ADME; settings: recombinant enzyme
Cytochrome P450 2D6, sequence (P10635 whole entry): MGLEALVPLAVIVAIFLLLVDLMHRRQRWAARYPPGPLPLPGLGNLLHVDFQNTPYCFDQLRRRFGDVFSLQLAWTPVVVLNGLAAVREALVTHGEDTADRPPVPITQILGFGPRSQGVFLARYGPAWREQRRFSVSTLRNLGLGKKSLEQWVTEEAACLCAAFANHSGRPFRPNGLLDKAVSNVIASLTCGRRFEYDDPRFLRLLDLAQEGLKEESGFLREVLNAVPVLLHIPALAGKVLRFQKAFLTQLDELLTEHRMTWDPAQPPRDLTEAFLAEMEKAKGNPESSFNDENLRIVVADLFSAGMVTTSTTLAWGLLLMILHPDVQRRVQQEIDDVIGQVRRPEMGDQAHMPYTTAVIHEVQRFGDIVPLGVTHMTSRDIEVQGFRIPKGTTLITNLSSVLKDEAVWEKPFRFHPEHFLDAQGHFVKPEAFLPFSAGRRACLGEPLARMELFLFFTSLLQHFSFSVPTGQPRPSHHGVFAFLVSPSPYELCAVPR

[28] = biological target: T1, Cytochrome P450 3A4; assay: Inhibition of CYP3A4 in human liver microsomes up to 30 uM; format: ADME, Microsome
[29] = biological target: T3, CYP2B6 (Homo sapiens, UniProt P20813); assay: Drug metabolism assessed as CYP2B6-mediated compound loss after 30 mins; format: ADME; settings: recombinant enzyme; read-out: Drug metabolism
T3 sequence (P20813 whole entry): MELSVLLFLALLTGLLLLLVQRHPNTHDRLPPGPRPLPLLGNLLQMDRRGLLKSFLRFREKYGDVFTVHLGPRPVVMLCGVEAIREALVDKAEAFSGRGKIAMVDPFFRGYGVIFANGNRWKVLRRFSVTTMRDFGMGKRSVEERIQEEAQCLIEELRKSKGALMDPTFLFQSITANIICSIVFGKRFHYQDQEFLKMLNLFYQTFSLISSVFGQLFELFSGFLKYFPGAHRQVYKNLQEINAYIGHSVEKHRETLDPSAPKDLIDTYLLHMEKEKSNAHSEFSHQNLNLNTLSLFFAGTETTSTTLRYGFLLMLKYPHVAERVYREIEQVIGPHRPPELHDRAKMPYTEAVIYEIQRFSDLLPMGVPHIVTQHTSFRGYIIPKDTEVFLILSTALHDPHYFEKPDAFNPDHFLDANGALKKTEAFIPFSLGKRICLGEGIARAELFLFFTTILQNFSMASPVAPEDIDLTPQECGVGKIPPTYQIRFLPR

[30] = biological target: CYP2D6 (Homo sapiens, UniProt P10635); assay: Drug metabolism assessed as CYP2D6-mediated compound loss after 30 mins; format: ADME; settings: recombinant enzyme; read-out: Drug metabolism
CYP2D6, sequence (P10635 whole entry): as the sequence (P10635 whole entry) above

[31] = test system: Hepatocyte; assay: Drug metabolism in rat hepatocytes after 60 mins; format: ADME, cell-based; settings: 1 h
[32] = test system: Hepatocyte; assay: Drug metabolism in mouse hepatocytes after 60 mins; format: ADME, cell-based; settings: 1 h
[33] = test system: Plasma; assay: Drug metabolism in rat plasma at 2 mg/kg after 60 mins; format: ADME, organism-based; parameters: dose 2 mg/kg; settings: in vivo, 1 h
[34] = test system: Salmonella typhimurium; assay: Induction of mutagenesis in Salmonella Typhimurium by Ames test; format: toxicity, organism-based; settings: salmonella enterica subsp. enterica serovar typhimurium
[35] = biological target: hERG (KCNH2) (Homo sapiens, UniProt Q12809); assay: Inhibition of human ERG at 10 uM
hERG (KCNH2), sequence (Q12809 whole entry, the tested form may be a part): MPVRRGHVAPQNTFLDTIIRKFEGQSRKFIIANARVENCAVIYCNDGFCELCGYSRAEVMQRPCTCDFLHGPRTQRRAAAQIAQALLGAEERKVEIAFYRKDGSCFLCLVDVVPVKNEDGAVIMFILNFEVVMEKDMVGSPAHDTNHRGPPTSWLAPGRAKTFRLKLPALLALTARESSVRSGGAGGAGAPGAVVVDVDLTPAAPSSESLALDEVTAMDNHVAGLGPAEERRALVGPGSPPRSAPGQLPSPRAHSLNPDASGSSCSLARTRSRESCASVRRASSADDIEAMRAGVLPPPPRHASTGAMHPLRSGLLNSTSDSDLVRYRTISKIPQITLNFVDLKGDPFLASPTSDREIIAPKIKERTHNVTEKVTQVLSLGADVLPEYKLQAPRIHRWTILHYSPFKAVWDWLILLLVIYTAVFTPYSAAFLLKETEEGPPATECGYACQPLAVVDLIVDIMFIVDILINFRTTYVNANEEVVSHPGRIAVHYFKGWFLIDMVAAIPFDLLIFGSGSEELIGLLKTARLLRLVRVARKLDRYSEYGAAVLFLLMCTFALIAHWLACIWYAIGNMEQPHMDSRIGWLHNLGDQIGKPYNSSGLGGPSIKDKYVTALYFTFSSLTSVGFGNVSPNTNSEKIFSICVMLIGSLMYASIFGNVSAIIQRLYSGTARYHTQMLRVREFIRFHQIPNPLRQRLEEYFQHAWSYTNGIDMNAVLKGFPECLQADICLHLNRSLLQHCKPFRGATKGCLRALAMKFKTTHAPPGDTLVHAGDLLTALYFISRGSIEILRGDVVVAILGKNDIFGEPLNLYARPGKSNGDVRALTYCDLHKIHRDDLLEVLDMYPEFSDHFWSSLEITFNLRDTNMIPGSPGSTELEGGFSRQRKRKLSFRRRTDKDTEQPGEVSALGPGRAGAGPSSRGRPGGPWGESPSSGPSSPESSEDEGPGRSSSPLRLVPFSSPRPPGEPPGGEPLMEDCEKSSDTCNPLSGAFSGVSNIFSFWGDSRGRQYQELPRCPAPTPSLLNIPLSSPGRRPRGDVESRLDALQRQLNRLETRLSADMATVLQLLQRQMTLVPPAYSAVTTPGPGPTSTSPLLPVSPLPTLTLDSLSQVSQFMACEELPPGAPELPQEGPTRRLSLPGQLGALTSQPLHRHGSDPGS

[36] = test system: Rattus norvegicus; assay: Toxicity in rat non-anesthetized rat at 30 mg/kg, iv infusion administered 4 hrs for 4 consecutive days; format: organism-based; parameters: dose 30 mg/kg, route intravenous; settings: in vivo

Work on `N[C@H]1CC[C@H](Nc2ncc3nc(Nc4ccc(F)cc4F)n(C4CCCC4)c3n2)CC1` yielded a remaining at 0.5 h, 3 µM [1] of 92%, a remaining at 0.5 h, 3 µM [2] of 100% and a remaining at 0.5 h, 3 µM [3] of 100%. For the same molecule, the remaining at 0.5 h, 3 µM [4] was 100%, the solubility thermodynamic [5] was 792 µg/mL (≈ 1850 µM) and the “inhibition (INH)” value [6] was “Not Active”. It also gave an IC50 [7] of 400 nM, an IC50 [8] of 24 nM and an IC50 [9] of 220 nM. It also gave a Vd [10] of 75 L/kg, an IC50 [11] of 1500 nM and an inhibition in vivo at 30 mg/kg [12] of 41%. The inhibition in vivo at 60 mg/kg [13] was 98%, the half-life [14] was 17 h and the clearance [15] was 83 mL/min/kg. For the same molecule, the Vd [16] was 55 L/kg, the half-life [17] was 10 h and the clearance [18] was 28 mL/min/kg. For the same molecule, the AUC [19] was 1.2 µM·h, the half-life [20] was 17 h and the clearance [21] was 5 mL/min/kg. The half-life [22] was 37 h, the MRT [23] was 40 h and the “inhibition (INH)” value [24] was “Not Active”. The “inhibition (INH)” value [25] was “Not Active”, the “inhibition (INH)” value [26] was “Not Active” and the “inhibition (INH)” value [27] was “Not Active”. For the same molecule, the “inhibition (INH)” value [28] was “Not Active”, the metabolised at 0.5 h [29] was 14% and the metabolised at 0.5 h [30] was 1.4%. For the same molecule, the Drug metabolism [31] was “Not Active”, the Drug metabolism [32] was “Not Active” and the Drug metabolism [33] was “Not Active”. For the same molecule, the Activity [34] was “Non-toxic”, the inhibition at 10 µM [35] was 59% and the Activity [36] was “Non-toxic”.
